In assay [1] the test system is PANC-1. Kind of assay: Anticancer activity against human PANC1 cells. Type of assay: functional, cell-based.
Assay [2] has as its system PANC-1. As to the kind of experiment: Cytotoxicity against human PANC1 cells assessed as decrease in cell viability after 72 hrs by MTT assay. The format is functional, cell-based. Conditions: PANC-1, 72 h.

Turning to `COC(=O)c1ccc2c(c1)nc(NC(=O)c1ccccc1)n2CCCc1ccccc1`, in the assay on PANC-1 [1], half-maximal inhibition (IC50) was put at 5 µM.
Consider `CCN(CC)CCNC(=O)c1ccc(NCCN2C(=O)c3ccccc3C2=O)cc1`, for which the IC50 with PANC-1 [2] came to 5 µM.
